# Data reported in article PMC11189555, “Aryl amino acetamides prevent Plasmodium falciparum ring development via targeting the lipid-transfer protein PfSTART1” (Nature Communications, 2024).
# Columns and labels:
# PfSTART1 = target: T1, PfSTART1 (Plasmodium falciparum, UniProt Q8I298); assay type: binding; details: 100 µM W-991 vs DMSO; 7-25% AEF; p = 0.0014
# T1 construct: endogenous in cells; host or cells: P. falciparum mature blood stages (30-42 hpi), soluble lysate
# Method: The experiment was carried out in three biological replicates. Saponin-liberated mature parasite stages (30-42 hpi) were resuspended in PBS and lysed by 3x flash freeze/thawing using liquid N2, followed by 10 x mechanical sheering with a 29 G needle-syringe, and soluble protein isolation through ultracentrifugation (100,000 g; 20 min, 4 °C). Protein lysate was exposed to the 100 µM of W-991 or the vehicle control (DMSO) for 3 min and subsequently incubated with varying concentration of the solvent mixture ‘AEF’ (50% Acetone, 50% Ethanol, 0.1% Formate) to a final concentration of 7-25% (v/v) with 2% intervals, for 20 min at 37 °C at 800 rpm on a Thermomixer (Eppendorf). Denatured protein was pelleted through centrifugation (4 °C, 18,000 g, 20 min), and the soluble phase was recovered and pulled together in equivolume ratios into two samples; Gradient 1 ‘G1’: 7-15% EAF and Gradient 2 ‘G2’: 17-25% EAF, respectively. […]
# Peptide samples were analysed on Orbitrap Eclipse Tribrid mass spectrometer that is interfaced with the Neo Vanquish liquid chromatography system. […] Subsequently, the differential abundance analysis (moderated t-test, based on limma package[81]) of P. falciparum proteins was conducted in the R environment (R version 4.2.0; R Studio Version 2023.12.1 + 402) using precursor normalised MaxLFQ data for proteins detected with ≥2 peptides. […]
# [1] = target: T2, PfSTART1 in parasite lysate (Plasmodium falciparum, UniProt Q8I298); experiment: Solvent profiling Western Blot (solvent induced protein precipitation); assay type: binding; details: 10 µM W-991 vs DMSO, 0-25% AEF
# T2 construct: endogenous in cells; host or cells: P. falciparum 3D7 schizonts, NP40-soluble lysate
# Method: 3D7 parasites at schizont stage were harvested with 10 x pellet volume of 0.15% saponin in PBS. To extract soluble material, 10 x pellet volume of 0.4% NP40 (IGEPAL CA-630, Sigma-Aldrich) in PBS with 1x Complete Protease cocktail tablet (Sigma-Aldrich) was added to the parasite pellets and 3 cycles of freeze/thawing was performed. Samples were then mechanically sheared by passage through 25 G and 30 G needles before lysate was cleared via centrifugation at 16,000 g x 30 min at 4 °C. Soluble fractions were collected and stored at −80 °C until use.
# For the solvent challenge, lysate was subjected to either W-991 (10 µM) or DMSO (0.1%) treatment for 3 min before aliquoted into final concentrations of 0-25% of Acetic acid/Ethanol/Formic acid (AEF) at a 50:50:0.1 (v/v/v)[25],[26]. The treated lysate and AEF mixture was incubated at 37 °C for 20 min at 800 rpm before aggregates were pelleted at 17,000 g x 20 min at 4 °C. Soluble fractions were removed, added to the final concentration of 1x NuPAGE LDS Sample Buffer (Invitrogen) with 1:100 2-mercaptoethanol (Sigma Aldrich) and boiled for 3 min. Proteins were separated on an 4-12% acrylamide gel (NuPAGE, Invitrogen) and subsequently transferred by electroblotting onto nitrocellulose membranes. Blots were probed with primary antibody anti-PfSTART1 (1:1000), followed by secondary antibody anti-rabbit-HRP (1:4000, Merck Millipore). […]
# P. berghei = details: at concentrations that are effective against P. falciparum; ref Nguyen et al. 2024; cited from earlier work
# T1 sequence (Q8I298 entry or part of it): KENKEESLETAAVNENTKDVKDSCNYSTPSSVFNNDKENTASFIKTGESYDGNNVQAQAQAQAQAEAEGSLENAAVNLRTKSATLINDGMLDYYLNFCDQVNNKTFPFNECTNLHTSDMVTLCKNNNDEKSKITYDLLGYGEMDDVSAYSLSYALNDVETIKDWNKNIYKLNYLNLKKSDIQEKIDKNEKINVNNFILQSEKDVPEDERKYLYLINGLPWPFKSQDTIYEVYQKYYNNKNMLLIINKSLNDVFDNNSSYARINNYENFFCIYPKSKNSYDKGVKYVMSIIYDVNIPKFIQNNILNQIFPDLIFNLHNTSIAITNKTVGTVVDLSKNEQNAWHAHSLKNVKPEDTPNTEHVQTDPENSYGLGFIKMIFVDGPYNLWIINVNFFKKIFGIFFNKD
# T2 sequence (Q8I298 entry or part of it): as above
structure (smiles),measurement,setting,value
CC(C)(Nc1ccc(Cl)c(S(=O)(=O)N2CCOCC2)c1)C(=O)Nc1ccc(F)c(Cl)c1 [W-991],soluble protein level in the presence of compound (stabilisation),PfSTART1,significantly (p < 0.01) increased levels
same,AEF concentration at which protection to PfSTART1 aggregation was elicited,[1],19-21 % AEF
same,effect on P. berghei parasitemia,P. berghei,does not reduce P. berghei parasitemia
